Test results reported in patent publication US11459306B2, “Compounds, compositions, and methods for treating T-cell acute lymphoblastic leukemia” (The Trustees of Columbia University in the City of New York, priority 2017, dated 2022).

Columns and labels:
[1] = system: human primary T-ALL cells; experiment: Akt phosphorylation and pro-apoptotic pathways in human primary T-ALL cells; type: cell-based
[2] = system: mouse PTEN null/NOTCH activated T-ALL cell line; experiment: Gene set enrichment analysis of murine T-ALL disease signature after drug treatment; type: cell-based; details: GSEA of T-ALL disease signature
Procedure: This was also accomplished by generating gene expression signatures to assess the effects of drug treatment. Global gene expression profiles were obtained in triplicate using a mouse PTEN null/NOTCH activated T-ALL cell line driven by over expression of the transcription factor LMO2. […] Tumor cells were cultured in the presence of CAL-130 (2.5 μM) or the gamma-secretase inhibitor (GSI) Compound E (1 μM). Compound E blocks the activity of NOTCH1, which is also believed to support T-ALL tumor formation, proliferation, and survival. Drug treated cells were harvested at time points known to affect the expression of the proto-oncogene cMyc (12 hours and 48 hours, respectively), a master regulator of cell growth, metabolism and survival. A Venn diagram was created to illustrate the overlap in genes altered by either PI3Kγ/δ blockade (red circle) or GSI (green circle) using a false discovery rate (FDR) of 0.0005 as cut off (FIG. 1A). Of note, ten-fold more genes were affected following PI3Kγ/δ blockade, including the majority (˜62%) of genes altered by GSI monotherapy, a highly significant finding (Fisher's exact test, P<2.2×10^−16).
A murine T-ALL disease signature was further defined by ranking all genes based on their differential expression in T-ALL samples compared to wild type murine thymocytes. […]

T-ALL = experiment: Tumor burden and survival of mice with T-ALL; type: in vivo
PIK3CB (PI3Kβ) = target: T1, PIK3CB (PI3Kβ) (Homo sapiens, UniProt P42338); experiment: KINOMEscan competition binding assay (DiscoverX); details: DiscoveRx gene symbol PIK3CB (PI3Kβ)
T1 construct: purchased DiscoverX (KINOMEscan); host or cells: E. coli BL21-derived host (T7 phage) or HEK-293
T1 sequence (P42338 whole entry): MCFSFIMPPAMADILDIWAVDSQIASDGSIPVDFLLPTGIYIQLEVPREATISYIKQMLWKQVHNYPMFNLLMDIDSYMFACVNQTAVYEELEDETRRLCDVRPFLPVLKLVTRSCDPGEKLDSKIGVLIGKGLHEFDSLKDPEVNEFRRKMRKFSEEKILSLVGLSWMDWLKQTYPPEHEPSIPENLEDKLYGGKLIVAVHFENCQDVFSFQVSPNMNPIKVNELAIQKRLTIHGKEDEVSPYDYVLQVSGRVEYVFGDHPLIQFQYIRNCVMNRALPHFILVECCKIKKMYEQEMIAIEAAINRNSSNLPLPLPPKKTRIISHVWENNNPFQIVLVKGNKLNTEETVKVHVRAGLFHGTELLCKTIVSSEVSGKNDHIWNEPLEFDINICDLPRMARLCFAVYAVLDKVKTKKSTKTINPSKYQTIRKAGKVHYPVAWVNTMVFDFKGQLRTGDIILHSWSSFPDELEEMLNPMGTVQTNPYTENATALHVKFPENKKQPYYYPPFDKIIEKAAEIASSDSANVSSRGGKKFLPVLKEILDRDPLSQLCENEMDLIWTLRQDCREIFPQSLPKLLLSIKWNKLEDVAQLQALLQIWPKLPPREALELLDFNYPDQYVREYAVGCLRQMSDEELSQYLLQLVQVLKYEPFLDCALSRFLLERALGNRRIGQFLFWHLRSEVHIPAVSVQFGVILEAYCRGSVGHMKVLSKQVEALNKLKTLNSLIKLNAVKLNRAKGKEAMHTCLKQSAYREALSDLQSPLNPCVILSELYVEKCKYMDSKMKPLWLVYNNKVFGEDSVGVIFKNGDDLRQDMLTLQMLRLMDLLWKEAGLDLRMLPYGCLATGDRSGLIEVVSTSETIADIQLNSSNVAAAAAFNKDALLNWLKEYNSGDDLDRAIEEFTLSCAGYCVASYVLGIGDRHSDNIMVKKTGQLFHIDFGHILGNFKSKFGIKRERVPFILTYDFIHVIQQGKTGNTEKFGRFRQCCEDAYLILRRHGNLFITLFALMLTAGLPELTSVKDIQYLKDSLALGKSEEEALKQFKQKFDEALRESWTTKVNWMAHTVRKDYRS
Procedure: (§1) The compounds were tested using KINOMEscan™ (DiscoverX), which is based on a competition binding assay that quantitatively measures the ability of a compound to compete with an immobilized, active-site directed ligand. The assay is performed by combining three components: DNA-tagged kinase; immobilized ligand; and a test compound. The ability of the test compound to compete with the immobilized ligand is measured via quantitative PCR of the DNA tag.
(§2) For most assays, kinase-tagged T7 phage strains were prepared in an E. coli host derived from the BL21 strain. E. coli were grown to log-phase and infected with T7 phage and incubated with shaking at 32° C. until lysis. The lysates were centrifuged and filtered to remove cell debris. The remaining kinases were produced in HEK-293 cells and subsequently tagged with DNA for qPCR detection. Streptavidin-coated magnetic beads were treated with biotinylated small molecule ligands for 30 minutes at room temperature to generate affinity resins for kinase assays. The liganded beads were blocked with excess biotin and washed with blocking buffer (SeaBlock (Pierce), 1% BSA, 0.05% Tween 20, 1 mM DTT) to remove unbound ligand and to reduce non-specific binding. Binding reactions were assembled by combining kinases, liganded affinity beads, and test compounds in 1× binding buffer (20% SeaBlock, 0.17×PBS, 0.05% Tween 20, 6 mM DTT). Test compounds were prepared as 111× stocks in 100% DMSO. Kds were determined using an 11-point 3-fold compound dilution series with three DMSO control points. All compounds for Kd measurements are distributed by acoustic transfer (non-contact dispensing) in 100% DMSO. The compounds were then diluted directly into the assays such that the final concentration of DMSO was 0.9%. All reactions performed in polypropylene 384-well plate. Each was a final volume of 0.02 ml. The assay plates were incubated at room temperature with shaking for 1 hour and the affinity beads were washed with wash buffer (1×PBS, 0.05% Tween 20). The beads were then re-suspended in elution buffer (1×PBS, 0.05% Tween 20, 0.5 μM non-biotinylated affinity ligand) and incubated at room temperature with shaking for 30 minutes. The kinase concentration in the eluates was measured by qPCR.
(§3) An 11-point 3-fold serial dilution of each test compound was prepared in 100% DMSO at 100× final test concentration and subsequently diluted to 1× in the assay (final DMSO concentration=1%). Most Kds were determined using a compound top concentration=30,000 nM. If the initial Kd determined was <0.5 nM (the lowest concentration tested), the measurement was repeated with a serial dilution starting at a lower top concentration.
(§4) Binding constants (Kds) were calculated with a standard dose-response curve using the Hill equation: […]
(§5) The Hill Slope was set to −1. Curves were fitted using a non-linear least square fit with the Levenberg-Marquardt algorithm.

PIK3CG = target: T2, PIK3CG (Homo sapiens, UniProt P48736); experiment: KINOMEscan competition binding assay (DiscoverX); details: DiscoveRx gene symbol PIK3CG (b251 prints: PI3Kδ)
T2 construct: purchased DiscoverX (KINOMEscan); host or cells: E. coli BL21-derived host (T7 phage) or HEK-293
T2 sequence (P48736 whole entry): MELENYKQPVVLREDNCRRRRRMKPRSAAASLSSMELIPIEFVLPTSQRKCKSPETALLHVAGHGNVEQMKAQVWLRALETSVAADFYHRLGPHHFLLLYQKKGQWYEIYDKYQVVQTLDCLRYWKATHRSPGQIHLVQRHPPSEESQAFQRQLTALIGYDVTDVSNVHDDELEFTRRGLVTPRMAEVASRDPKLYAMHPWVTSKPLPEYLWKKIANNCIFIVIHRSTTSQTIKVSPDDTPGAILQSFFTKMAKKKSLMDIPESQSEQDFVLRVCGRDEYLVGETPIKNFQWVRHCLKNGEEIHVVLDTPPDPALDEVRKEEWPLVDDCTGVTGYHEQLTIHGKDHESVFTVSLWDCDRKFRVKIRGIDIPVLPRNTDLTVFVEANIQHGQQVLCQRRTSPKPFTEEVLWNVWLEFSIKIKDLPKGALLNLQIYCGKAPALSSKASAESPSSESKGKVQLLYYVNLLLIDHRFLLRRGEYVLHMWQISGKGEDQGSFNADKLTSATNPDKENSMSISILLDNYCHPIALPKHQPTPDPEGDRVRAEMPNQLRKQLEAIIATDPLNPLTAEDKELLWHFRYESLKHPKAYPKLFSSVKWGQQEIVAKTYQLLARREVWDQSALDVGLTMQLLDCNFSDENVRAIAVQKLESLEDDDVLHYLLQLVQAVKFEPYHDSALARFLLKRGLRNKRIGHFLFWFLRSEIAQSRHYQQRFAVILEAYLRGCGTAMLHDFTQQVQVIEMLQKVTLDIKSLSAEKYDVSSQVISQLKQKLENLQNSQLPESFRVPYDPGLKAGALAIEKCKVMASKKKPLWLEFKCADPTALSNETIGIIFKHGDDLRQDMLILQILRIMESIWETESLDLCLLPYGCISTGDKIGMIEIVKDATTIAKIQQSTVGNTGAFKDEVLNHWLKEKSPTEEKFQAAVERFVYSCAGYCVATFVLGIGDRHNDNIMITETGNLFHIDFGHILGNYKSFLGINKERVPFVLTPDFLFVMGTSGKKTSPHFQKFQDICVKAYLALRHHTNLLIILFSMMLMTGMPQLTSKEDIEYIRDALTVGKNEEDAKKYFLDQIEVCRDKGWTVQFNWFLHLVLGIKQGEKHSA
Procedure: as §1, §2, §3, §4, §5

PIK3CD = target: T3, PIK3CD (Homo sapiens, UniProt O00329); experiment: KINOMEscan competition binding assay (DiscoverX); details: DiscoveRx gene symbol PIK3CD (b251 prints: PI3Kγ)
T3 construct: purchased DiscoverX (KINOMEscan); host or cells: E. coli BL21-derived host (T7 phage) or HEK-293
T3 sequence (O00329 1-1044): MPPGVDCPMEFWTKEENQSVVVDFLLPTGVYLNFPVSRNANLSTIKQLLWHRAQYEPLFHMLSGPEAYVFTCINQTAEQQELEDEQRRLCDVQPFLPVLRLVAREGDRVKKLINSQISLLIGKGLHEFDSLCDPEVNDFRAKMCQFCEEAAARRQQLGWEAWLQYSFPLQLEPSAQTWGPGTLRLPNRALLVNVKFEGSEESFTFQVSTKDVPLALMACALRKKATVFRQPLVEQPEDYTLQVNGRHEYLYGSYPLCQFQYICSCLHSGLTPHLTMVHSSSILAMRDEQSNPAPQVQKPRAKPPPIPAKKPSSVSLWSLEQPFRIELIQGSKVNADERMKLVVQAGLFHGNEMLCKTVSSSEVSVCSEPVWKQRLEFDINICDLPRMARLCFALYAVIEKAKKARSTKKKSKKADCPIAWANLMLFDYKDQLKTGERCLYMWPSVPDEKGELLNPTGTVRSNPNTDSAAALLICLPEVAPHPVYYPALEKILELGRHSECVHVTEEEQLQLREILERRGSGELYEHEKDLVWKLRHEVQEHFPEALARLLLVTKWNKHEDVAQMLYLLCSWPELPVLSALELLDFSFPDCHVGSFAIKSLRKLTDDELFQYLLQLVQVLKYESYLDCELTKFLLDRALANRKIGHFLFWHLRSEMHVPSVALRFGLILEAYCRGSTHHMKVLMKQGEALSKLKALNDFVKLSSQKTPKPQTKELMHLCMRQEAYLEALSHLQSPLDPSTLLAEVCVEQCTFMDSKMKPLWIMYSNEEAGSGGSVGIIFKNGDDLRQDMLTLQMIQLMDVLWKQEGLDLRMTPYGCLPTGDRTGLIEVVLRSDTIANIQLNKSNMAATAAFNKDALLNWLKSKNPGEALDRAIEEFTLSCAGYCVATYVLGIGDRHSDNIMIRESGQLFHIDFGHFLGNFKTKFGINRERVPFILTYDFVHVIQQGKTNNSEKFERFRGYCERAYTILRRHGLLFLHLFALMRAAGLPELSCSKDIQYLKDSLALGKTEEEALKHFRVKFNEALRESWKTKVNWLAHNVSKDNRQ
Procedure: as §1, §2, §3, §4, §5

PIK3CA (PI3Kα) = target: T4, PIK3CA (PI3Kα) (Homo sapiens, UniProt P42336); experiment: KINOMEscan competition binding assay (DiscoverX); details: DiscoveRx gene symbol PIK3CA (PI3Kα)
T4 construct: purchased DiscoverX (KINOMEscan); host or cells: E. coli BL21-derived host (T7 phage) or HEK-293
T4 sequence (P42336 whole entry): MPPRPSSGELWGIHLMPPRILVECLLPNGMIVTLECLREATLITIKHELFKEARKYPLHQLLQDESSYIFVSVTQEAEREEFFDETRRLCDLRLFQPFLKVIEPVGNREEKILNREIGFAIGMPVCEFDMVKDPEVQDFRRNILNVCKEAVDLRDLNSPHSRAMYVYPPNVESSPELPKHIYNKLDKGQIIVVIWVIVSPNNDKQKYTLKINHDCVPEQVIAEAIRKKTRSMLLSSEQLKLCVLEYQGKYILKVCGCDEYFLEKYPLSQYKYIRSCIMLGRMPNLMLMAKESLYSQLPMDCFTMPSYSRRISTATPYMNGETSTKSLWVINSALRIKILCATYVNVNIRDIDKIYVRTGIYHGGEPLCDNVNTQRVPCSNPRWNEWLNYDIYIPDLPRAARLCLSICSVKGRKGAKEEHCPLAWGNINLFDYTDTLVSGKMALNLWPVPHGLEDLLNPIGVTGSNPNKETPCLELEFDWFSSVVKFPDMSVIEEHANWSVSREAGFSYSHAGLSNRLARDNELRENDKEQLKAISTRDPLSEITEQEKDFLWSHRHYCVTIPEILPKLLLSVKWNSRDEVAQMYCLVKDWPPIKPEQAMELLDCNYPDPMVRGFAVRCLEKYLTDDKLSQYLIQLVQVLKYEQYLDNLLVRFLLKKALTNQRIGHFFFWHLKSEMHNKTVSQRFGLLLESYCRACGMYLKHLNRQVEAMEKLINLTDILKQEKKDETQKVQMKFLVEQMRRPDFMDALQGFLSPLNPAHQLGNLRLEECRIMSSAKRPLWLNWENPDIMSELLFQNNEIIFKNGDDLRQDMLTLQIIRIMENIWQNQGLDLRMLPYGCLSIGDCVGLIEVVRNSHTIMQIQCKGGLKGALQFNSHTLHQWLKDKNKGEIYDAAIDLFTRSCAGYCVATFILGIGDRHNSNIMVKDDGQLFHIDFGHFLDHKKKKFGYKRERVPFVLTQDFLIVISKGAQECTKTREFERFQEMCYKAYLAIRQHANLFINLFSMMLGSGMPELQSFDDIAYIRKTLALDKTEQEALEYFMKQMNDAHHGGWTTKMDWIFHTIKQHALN
Procedure: as §1, §2, §3, §4, §5

[3] = Pharmacokinetics relative to CAL-130; type: in vivo
T-ALL cell line = experiment: T-ALL cell viability / cell death; type: cell-based, murine
Procedure: Compounds DWL-PI3K-1, DWL-PI3K-2, DWL-PI3K-3, DWL-PI3K-4, DWL-PI3K-5, DWL-PI3K-6 and DWL-PI3K-7, and reference compounds CAL-130, tenalisib, duvelisib were evaluated for efficacy (cell viability by measuring ATP (CellTiter-Glo) or propidium iodide (PI) uptake) against a number of cancer cells, including LMO-2-007, OCI-LY-10, HH, H9, PF382 and CCRF-CEM.

[4] = system: murine PTEN null T-ALL cell line lacking both p110γ and p110δ catalytic domains; experiment: Killing of T-ALL cell line lacking p110γ and p110δ; type: cell-based; details: selectivity control line
Excerpt: Compounds described herein also appear to be selective for p110 catalytic domains of PI3Kγ and PI3Kδ as treatment, for example, of a T-ALL cell line lacking these two p110 isoforms results in limited cell killing.

SMILES	Kd (PIK3CB (PI3Kβ)) [nM]	Kd (PIK3CG) [nM]	Kd (PIK3CD) [nM]	Kd (PIK3CA (PI3Kα)) [nM]	pharmacokinetics [3]	Akt phosphorylation and pro-apoptotic pathways [1]	normalized enrichment score (NES) ([2]; 2.5 μM, 12 hours)	effect on tumor burden and survival (T-ALL)	mean survival (T-ALL; 10 mg/kg tid) [days]	normalized enrichment score (NES) ([2]; 1 μM, 48 hours)	amount needed relative to CAL-130 to achieve a similar reduction in tumor cell survival (T-ALL cell line)	efficacy in inducing T-ALL cell death relative to CAL-130 (T-ALL cell line; cultured T-ALL cells)	cell killing of T-ALL cell line lacking p110γ and p110δ [4]	mean survival (T-ALL; 30 mg/kg tid) [days]
Cc1ccccc1-n1c([C@H](C)Nc2nc(N)nc3[nH]cnc23)nc2cccc(C)c2c1=O [CAL-130]	–	–	–	–	–	abolished Akt phosphorylation and activated pro-apoptotic pathways	−5.8	significantly reduced tumor burden and prolonged survival of diseased mice	45	–	–	–	–	–
C[C@H](NC(=O)Cc1cc(F)cc(F)c1)C(=O)N[C@H]1N=C(c2ccccc2)c2ccccc2N(C)C1=O [Compound E]	–	–	–	–	–	–	–	–	–	−2.6	–	–	–	–
Cc1ccccc1-n1c([C@H](C)Nc2nc(N)nc(N)c2C#N)nc2cccc(C)c2c1=O [DWL-PI3K-1, (S)-2,4-diamino-6-((1-(5-methyl-4-oxo-3-(o-tolyl)-3,4-dihydroquinazolin-2-yl)ethyl)amino)pyrimidine-5-carbonitrile]	0.92	0.2	0.39	20	better pharmacokinetics	–	–	–	–	–	about 10 fold less	–	–	–
Cc1ccccc1-n1c([C@H](C)Nc2nc(N)nc(C)c2C#N)nc2cccc(C)c2c1=O [DWL-PI3K-2, (S)-2-amino-4-methyl-6-((1-(5-methyl-4-oxo-3-(o-tolyl)-3,4-dihydroquinazolin-2-yl)ethyl)amino)pyrimidine-5-carbonitrile]	4.3	0.62	0.62	53	better pharmacokinetics	–	–	–	–	–	about 10 fold less	–	–	–
C[C@H](Nc1ncnc2nc[nH]c12)c1cc2cccc(Cl)c2c(=O)n1-c1ccccc1 [IPI-145]	–	–	–	–	–	–	–	not as effective in reducing tumor burden or in prolonging overall survival	–	–	–	–	–	18

Second part, led by results:

Kd (PIK3CB (PI3Kβ)) [nM]	Kd (PIK3CG) [nM]	Kd (PIK3CD) [nM]	Kd (PIK3CA (PI3Kα)) [nM]	pharmacokinetics [3]	SMILES	Akt phosphorylation and pro-apoptotic pathways [1]	normalized enrichment score (NES) ([2]; 2.5 μM, 12 hours)	effect on tumor burden and survival (T-ALL)	mean survival (T-ALL; 10 mg/kg tid) [days]	normalized enrichment score (NES) ([2]; 1 μM, 48 hours)	amount needed relative to CAL-130 to achieve a similar reduction in tumor cell survival (T-ALL cell line)	efficacy in inducing T-ALL cell death relative to CAL-130 (T-ALL cell line; cultured T-ALL cells)	cell killing of T-ALL cell line lacking p110γ and p110δ [4]	mean survival (T-ALL; 30 mg/kg tid) [days]
0.15	0.089	0.042	2.2	better pharmacokinetics	Cc1nc(N)nc(N[C@@H](C)c2cc3cccc(Cl)c3c(=O)n2-c2ccccc2)c1C#N [DWL-PI3K-4, (S)-2-amino-4-((1-(8-chloro-1-oxo-2-phenyl-1,2-dihydroisoquinolin-3-yl)ethyl)amino)-6-methylpyrimidine-5-carbonitrile]	–	–	–	–	–	about 10 fold less	greater efficacy than CAL-130	limited killing	–
1.4	0.38	0.12	30	better pharmacokinetics	C[C@H](Nc1nc(N)nc(N)c1C#N)c1cc2cccc(Cl)c2c(=O)n1-c1cc(F)cc(F)c1 [DWL-PI3K-5, (S)-2,4-diamino-6-(1-(8-chloro-2-(3,5-difluorophenyl)-1-oxo-1,2-dihydroisoquinolin-3-yl)ethylamino)pyrimidine-5-carbonitrile]	–	–	–	–	–	about 10 fold less	–	–	–
0.46	0.27	0.11	10	better pharmacokinetics	C[C@H](Nc1nc(N)nc(N)c1C#N)c1cc2cccc(Cl)c2c(=O)n1-c1cccc(F)c1 [DWL-PI3K-6, (S)-2,4-diamino-6-((1-(8-chloro-2-(3-fluorophenyl)-1-oxo-1,2-dihydroisoquinolin-3-yl)ethyl)amino)pyrimidine-5-carbonitrile]	–	–	–	–	–	about 10 fold less	–	–	–
0.3	0.17	0.12	6.1	better pharmacokinetics	[2H]c1c([2H])c([2H])c(-n2c([C@H](C)Nc3nc(N)nc(N)c3C#N)cc3cccc(Cl)c3c2=O)c([2H])c1[2H] [DWL-PI3K-7, (S)-2,4-diamino-6-((1-(8-chloro-1-oxo-2-(phenyl-d5)-1,2-dihydroisoquinolin-3-yl)ethyl)amino)pyrimidine-5-carbonitrile]	–	–	–	–	–	about 10 fold less	–	limited killing effect	–
